Data on three compounds can be found in patent US10137112B2, “Methods for treating hyperuricemia in patients with gout using halofenate or halofenic acid and a second urate-lowering agent” (CymaBay Therapeutics, Inc., priority 2011, dated 2018).

SMILES strings stand for the structures. “And” between values parts separate entries of the source, which are not always exact repeats. Identical values can stand only once.

In assay [1] the test system is serum uric acid (sUA).
Protocol: A randomized, double-blind, placebo-controlled study to evaluate the safety and efficacy of daily oral doses of between 400 to 600 mg of arhalofenate (i.e., (−)-halofenate) in combination with 300 mg oral doses of allopurinol was conducted in gout patients with inadequate hypouricemic (uric acid lowering) response to allopurinol alone.
Patients who met the final eligibility criteria were randomized to each of 3 study arms in the following manner (1:1:1):
Arhalofenate 400 mg (plus allopurinol 300 mg)
Arhalofenate 600 mg (plus allopurinol 300 mg)
Placebo (plus allopurinol 300 mg)
The serum uric acid (sUA) levels were assessed at Day 1, prior to giving blinded study medication, and at Visits Week 2, 3, and 4.
Patients in all treatment groups also took allopurinol 300 mg once daily orally starting at Week −3 during the run-in and continuing through Week 4.
The randomized treatment regimens were as follows (Day 1 through Week 4):
Treatment Group #1: Arhalofenate 400 mg (plus allopurinol)
Treatment Group #2: Arhalofenate 600 mg (plus allopurinol)
Treatment Group #3: Placebo (plus allopurinol)
The effects of each of the three treatment groups were assessed as the change in sUA from baseline to the end of the treatment period for the following endpoints:
Percent change in sUA from baseline at Week 4 of treatment
The proportion of patients achieving a sUA<6 mg/dL at week 4 of treatment
The proportion of patients achieving a sUA<5 mg/dL at week 4 of treatment
The proportion of patients achieving a sUA<4 mg/dL at week 4 of treatment
A further assay deals with serum uric acid. The settings on record: monotherapy at 40, 80, 120, 160 and 240 mg/day; cited from earlier work.
Assay [2] concerns serum uric acid (sUA). The experiment in a line: Example 2 clinical trial: arhalofenate 400 mg increasing to 600 mg in combination with febuxostat 80 mg in gout patients with hyperuricemia, serum uric acid. The assay is classed as in vivo, human. The conditions noted are these: Day 8, after 1 week febuxostat 80 mg daily. Here is the method:
This study evaluated the efficacy, safety and tolerability of arhalofenate at 400 mg increasing to 600 mg daily orally in combination with febuxostat 80 mg daily orally in gout patients (per criteria of the American Rheumatism Association) with hyperuricemia.
In addition to colchicine 0.6 mg daily for flare prophylaxis, all patients received febuxostat and arhalofenate in the following order during the Treatment Phase: • Days 1 through 7: febuxostat 80 mg orally once daily (febuxostat only period) • Days 8 through 21: febuxostat 80 mg plus arhalofenate 400 mg orally once daily (febuxostat plus arhalofenate 400 mg period) • Days 22 through 35: febuxostat 80 mg plus arhalofenate 600 mg orally once daily (febuxostat plus arhalofenate 600 mg period)
The sUA levels were assessed before the start of each dosing period (Day 1, Day 8, Day 22) and at the end of the Treatment Phase (Day 36). Serum urate levels were also measured on the last day of each dosing period (Day 7, Day 21, and Day 35) at 4 different time points; pre-dose (fasting), 2 hours post-dose, 6 hours post-dose, and 10 hours post-dose.
Dose/Route/Regimen • Colchicine: 0.6 mg/oral/daily from Day −16 through Day 49 • Febuxostat: 80 mg/oral/daily from Day 1 through Day 35 • Arhalofenate: 400 mg/oral daily from Day 8 through Day 21; 600 mg/oral/daily from Day 22 through Day 35
Duration of Treatment • Phase 1: Screening Phase: 1 to 4 weeks • Phase 2: Run-in/Stabilization Phase: ≥2 weeks • Phase 3: Treatment Phase: 5 weeks • Phase 4: Follow-up Phase: 2 weeks

The mark [3] stands for this setting: placebo + allopurinol 300 mg once daily oral, Week 4 (LOCF), N = 31.
The mark [4] stands for this setting: placebo + allopurinol 300 mg once daily oral, Week 4, N = 31.
The mark [5] stands for this setting: placebo + allopurinol 300 mg, Week 4.

Consider `O=c1[nH]cnc2[nH]ncc12` [Placebo + Allopurinol, 1,5-dihydro-4H-pyrazolo [3,4-d]pyrimidin-4-one], for which, in the assay on serum uric acid (sUA) [1] (setting [3]), the “% Change from Baseline in Uric Acid, Mean” value is −9.5% and the “% Change from Baseline in Uric Acid, Median” value is recorded as −8.7%. Moreover, in the assay on serum uric acid (sUA) [1] (setting [4]), the “Uric Acid at End of Treatment (LOCF), Mean” value is reported as 6.3 mg/dL and the “Uric Acid at End of Treatment (LOCF), Median” value was found to be 6.2 mg/dL. In the assay with serum uric acid (sUA) [1] (setting [5]), the “patients with sUA<4.0 mg/dL by End of Treatment” value was 1 patients, the “patients with sUA<5.0 mg/dL by End of Treatment” value was 4 patients and the “patients with sUA<6.0 mg/dL by End of Treatment” value came out at 11 patients.
On to `O=c1[nH]cnc2c(CN3C[C@H](CO)[C@@H](O)C3)c[nH]c12` [Ulodesine, 7-(((3R,4R)-3-hydroxy-4-(hydroxymethyl)pyrrolidin-1-yl)methyl)-3H-pyrrolo[3,2-d]pyrimidin-4(5H)-one], for which, in the assay with serum uric acid, the “effect on serum uric acid in gout patients” value is “rapidly and significantly reduced serum uric acid”.
Regarding `Cc1nc(-c2ccc(OCC(C)C)c(C#N)c2)sc1C(=O)O` [febuxostat, 2-(3-cyano-4-isobutoxyphenyl)-4-methyl-1,3-thiazole-5-carboxylic acid], in the assay on serum uric acid (sUA) [2], the “mean absolute reduction in sUA from Day 1” value is -4.3 mg/dL and the “mean percent reduction in sUA from Day 1” value is −47.8%. Besides, in the assay on serum uric acid (sUA) [2] (11 patients), the “Patients reached target: No, sUA < 3.0 mg/dL” value stood at 11 patients; the “Patients reached target: No, sUA < 4.0 mg/dL” value turned out to be 10 patients; the “Patients reached target: No, sUA < 5.0 mg/dL” value was 5 patients; the “Patients reached target: No, sUA < 6.0 mg/dL” value is reported as 0 patients. In the assay on serum uric acid (sUA) [2] (11 patients), the “Patients reached target: Yes, sUA < 3.0 mg/dL” value is 0 patients; the “Patients reached target: Yes, sUA < 4.0 mg/dL” value is recorded as 1 patients; the “Patients reached target: Yes, sUA < 5.0 mg/dL” value was 6 patients; the “Patients reached target: Yes, sUA < 6.0 mg/dL” value is recorded as 11 patients. Also, in the assay with serum uric acid (sUA) [2] (11 patients), the “Proportion of patients reached target, sUA < 3.0 mg/dL” value is 0.00%; the “Proportion of patients reached target, sUA < 4.0 mg/dL” value is 9% and 9.09%; the “Proportion of patients reached target, sUA < 5.0 mg/dL” value was 55% and 54.55%; the “Proportion of patients reached target, sUA < 6.0 mg/dL” value is 100%.
